Reference: patent US20030064960A1, “Medicine for inducing osteogenesis” (priority 1999, published 2003)

Tests used:
[1] = hyaluronic acid with a molecular weight of 20,000 to 60,000, at a concentration of 0.5 mg/ml; cited from earlier work
[2] = system: RC-I,II cell (cultured cell derived from rat calvaria); assay: Osteogenesis inducing activity on cultured cell derived from rat calvaria (northern blotting of ALP, COL1 and OC genes); assay type: cell-based
Protocol: (1) Preparation of Cultured Cell Derived from Rat Calvaria
Cultured cell derived from rat calvaria was isolated from Wister rats (obtained from sankyo-rabo) of three days old by following method.
The rats were killed, decapitated and their calvarias were picked out. The tissue was flaked by a tweezer and suspended into a solution for enzyme treatment, containing 0.04% of EDTA, collagenase (crude type 1A: SIGMA: 0.1%) and trypsin (0.05%). The sample was treated in the enzyme solution for 30 min under temperature of 37° C. Then, the enzyme solution was harvested and cells extricated into the enzyme solution was harvested by centrifugation (RC-I). The enzyme solution was added again and digested at 37° C. for 30 min. Cells extricated into the enzyme solution was designated as RC-II.
The RC-I and RC-II thus obtained were mixed and used for following experiments. The cell mixture of RC-I and RC-II was designated as RC-I,II cell in following description. […] The RC-I and RC-II described above hardly expressed alkaline phosphatase (ALP), type 1 collagen (COL1) and osteocarcin (OC) gene. The genes described above are used for marker genes of osteoblast (T. R. Arnett et al, Methods in Bone Biology, 1988, Chapman & Hall).
(3) Estimation of Osteogenesis Inducing Activity of the Lipid-bound Glycosaminoglycan
HA-PE produced as described above was dissolved in hank's solution at concentration of 5 μg/ml and 2 ml of hank's solution containing HA-PE was poured into polystyrene culture dish with diameter of 10 cm. The dish was coated by settling the dish for 16 hours at 4° C. The dish treated by hank's solution without HA-PE was used for control.
The RC-I,II cell suspension, prepared as described above, was poured on the dish at the density of 1×10^4 cells/cm^2. The cell was cultured in α-minimum eagle medium (MEM: GIBCO) solution containing 1% anti-biotics, anti-mycoplasma solution (containing 50 μg/ml ascorbic acid and 5 mM β-glycerophosphate, GIBCO) and 10% fatal bovine serum (FBS: GIBCO).
At the time just after cell reached to confluent, one week after confluent and two weeks after confluent, total RNA of the cell was extracted by guanidine-phenol-chloroform method. The expression of ALP, COL1 and OC genes was analyzed by northern blotting method. The expression of these genes are used as an indicator of osteoblast differentiation. In FIG. 1, Et-Br indicates control sample obtained by staining of ribosomal RNA by ethydium bromide. Moreover, digitalized result calculated from northern blotting of FIG. 1 by Quantity One program (TOYOBO) was shown in FIG. 2 as a value standardized against the control described above.

[3] = RC-I,II cell cultured in dish coated with 5 μg/ml HA-PE, northern blotting at confluent, one and two weeks after confluent, vs dish treated without HA-PE

Substance: hyaluronic acid
- osteogenesis induction activity [1]: osteogenesis induction activity

Substance: L-(α-phosphatidyl)ethanolamine dipalmytoyl conjugated hyaluronic acid [HA-PE]
- induction of osteocyte differentiation ([2]; RC-I,II cell cultured in HA-PE coated dish (5 μg/ml)): significant induction of osteocyte differentiation
- expression of ALP gene [2, 3]: predominant increase
- expression of COL1 gene [2, 3]: predominant increase
- expression of OC gene [2, 3]: predominant increase
